Results from PubChem BioAssay (NCI).
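Results reflect a 48-hour exposure of cells in 96-well plates to compound at five concentrations. At the GI50, growth is halved. TGI marks complete inhibition of growth.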

Assays:
Test in all cases: NCI-60 cell line screen, 48 h
HCT-116 colon = test system: HCT-116 colon
HOP-92 NSCLC = test system: HOP-92 NSCLC
K-562 leukemia = test system: K-562 leukemia
OVCAR-5 ovarian = test system: OVCAR-5 ovarian
SN12C renal = test system: SN12C renal
BT-549 breast = test system: BT-549 breast
HCC-2998 colon = test system: HCC-2998 colon
SNB-75 CNS = test system: SNB-75 CNS
RPMI-8226 leukemia = test system: RPMI-8226 leukemia
UO-31 renal = test system: UO-31 renal
SF-539 CNS = test system: SF-539 CNS
MDA-MB-435 = test system: MDA-MB-435
SR leukemia = test system: SR leukemia
EKVX NSCLC = test system: EKVX NSCLC
IGROV1 ovarian = test system: IGROV1 ovarian
NCI-H460 lung = test system: NCI-H460 lung
A498 renal = test system: A498 renal
UACC-62 melanoma = test system: UACC-62 melanoma
SK-MEL-28 melanoma = test system: SK-MEL-28 melanoma
A549 NSCLC = test system: A549 NSCLC
OVCAR-8 ovarian = test system: OVCAR-8 ovarian
LOX IMVI melanoma = test system: LOX IMVI melanoma
T-47D breast = test system: T-47D breast
PC-3 prostate = test system: PC-3 prostate
HCT-15 colon = test system: HCT-15 colon
HL-60(TB) leukemia = test system: HL-60(TB) leukemia
MDA-MB-231 breast = test system: MDA-MB-231 breast
NCI-H23 lung = test system: NCI-H23 lung
RXF 393 renal = test system: RXF 393 renal
OVCAR-3 ovarian = test system: OVCAR-3 ovarian
NCI-H522 lung = test system: NCI-H522 lung
SNB-19 CNS = test system: SNB-19 CNS
SW-620 colon = test system: SW-620 colon
HOP-62 NSCLC = test system: HOP-62 NSCLC
CAKI-1 renal = test system: CAKI-1 renal
U251 CNS = test system: U251 CNS
SK-MEL-5 melanoma = test system: SK-MEL-5 melanoma
786-0 renal = test system: 786-0 renal
MCF7 breast = test system: MCF7 breast
TK-10 renal = test system: TK-10 renal
MOLT-4 leukemia = test system: MOLT-4 leukemia
NCI-H226 lung = test system: NCI-H226 lung
HT29 colon = test system: HT29 colon
UACC-257 melanoma = test system: UACC-257 melanoma
M14 melanoma = test system: M14 melanoma
CCRF-CEM leukemia = test system: CCRF-CEM leukemia
SF-295 CNS = test system: SF-295 CNS
COLO 205 colon = test system: COLO 205 colon
SK-OV-3 ovarian = test system: SK-OV-3 ovarian
MDA-MB-468 breast = test system: MDA-MB-468 breast
HS 578T breast = test system: HS 578T breast
DU-145 prostate = test system: DU-145 prostate
NCI/ADR-RES ovarian = test system: NCI/ADR-RES ovarian
SK-MEL-2 melanoma = test system: SK-MEL-2 melanoma
ACHN renal = test system: ACHN renal
MALME-3M melanoma = test system: MALME-3M melanoma
OVCAR-4 ovarian = test system: OVCAR-4 ovarian
KM12 colon = test system: KM12 colon
SF-268 CNS = test system: SF-268 CNS

Nc1nc(-c2ccccc2)c(N=Nc2ccc(Cl)cc2Cl)s1
GI50 (HCT-116 colon): 3.33 µM | TGI (HCT-116 colon): 12.6 µM | GI50 (HOP-92 NSCLC): 1.85 µM | TGI (HOP-92 NSCLC): 5.86 µM | GI50 (K-562 leukemia): 3.58 µM | TGI (K-562 leukemia): 14.9 µM | GI50 (OVCAR-5 ovarian): 3.58 µM | TGI (OVCAR-5 ovarian): 15.4 µM | GI50 (SN12C renal): 3.81 µM | TGI (SN12C renal): 15.3 µM | GI50 (BT-549 breast): 2.43 µM | TGI (BT-549 breast): 9.74 µM | GI50 (HCC-2998 colon): 1.84 µM | TGI (HCC-2998 colon): 5.41 µM | GI50 (SNB-75 CNS): 1.57 µM | TGI (SNB-75 CNS): 8.52 µM | GI50 (RPMI-8226 leukemia): 3.31 µM | TGI (RPMI-8226 leukemia): 15.2 µM | GI50 (UO-31 renal): 1.45 µM | TGI (UO-31 renal): 11.7 µM | GI50 (SF-539 CNS): 2.78 µM | TGI (SF-539 CNS): 10.5 µM | GI50 (MDA-MB-435): 3.74 µM | TGI (MDA-MB-435): 14.4 µM | GI50 (SR leukemia): 3.1 µM | TGI (SR leukemia): 12.8 µM | GI50 (EKVX NSCLC): 2.04 µM | TGI (EKVX NSCLC): 12.3 µM | GI50 (IGROV1 ovarian): 2.13 µM | TGI (IGROV1 ovarian): 12.7 µM | GI50 (NCI-H460 lung): 2.92 µM | TGI (NCI-H460 lung): 11.7 µM | GI50 (A498 renal): 6.03 µM | TGI (A498 renal): 18.4 µM | GI50 (UACC-62 melanoma): 2.45 µM | TGI (UACC-62 melanoma): 12 µM | GI50 (SK-MEL-28 melanoma): 4.69 µM | TGI (SK-MEL-28 melanoma): 16.5 µM | GI50 (A549 NSCLC): 3.67 µM | TGI (A549 NSCLC): 14.7 µM | GI50 (OVCAR-8 ovarian): 5.82 µM | TGI (OVCAR-8 ovarian): 18.7 µM | GI50 (LOX IMVI melanoma): 1.83 µM | TGI (LOX IMVI melanoma): 5.17 µM | GI50 (T-47D breast): 1.03 µM | TGI (T-47D breast): 6.56 µM | GI50 (PC-3 prostate): 3.16 µM | TGI (PC-3 prostate): 12.4 µM | GI50 (HCT-15 colon): 2.81 µM | TGI (HCT-15 colon): 11.7 µM | GI50 (HL-60(TB) leukemia): 3.42 µM | TGI (HL-60(TB) leukemia): 12.9 µM | GI50 (MDA-MB-231 breast): 2.19 µM | TGI (MDA-MB-231 breast): 8.67 µM | GI50 (NCI-H23 lung): 2.91 µM | TGI (NCI-H23 lung): 13.5 µM | GI50 (RXF 393 renal): 3.02 µM | TGI (RXF 393 renal): 11.7 µM | GI50 (OVCAR-3 ovarian): 3.57 µM | TGI (OVCAR-3 ovarian): 13.2 µM | GI50 (NCI-H522 lung): 2.91 µM | TGI (NCI-H522 lung): 13.3 µM | GI50 (SNB-19 CNS): 6.02 µM | TGI (SNB-19 CNS): 18.7 µM | GI50 (SW-620 colon): 2.88 µM | TGI (SW-620 colon): 13.5 µM | GI50 (HOP-62 NSCLC): 4.01 µM | TGI (HOP-62 NSCLC): 18.4 µM | GI50 (CAKI-1 renal): 2.52 µM | TGI (CAKI-1 renal): 12.3 µM | GI50 (U251 CNS): 4.28 µM | TGI (U251 CNS): 15.8 µM | GI50 (SK-MEL-5 melanoma): 2.6 µM | TGI (SK-MEL-5 melanoma): 8.66 µM | GI50 (786-0 renal): 2.48 µM | TGI (786-0 renal): 6.34 µM | GI50 (MCF7 breast): 2.16 µM | TGI (MCF7 breast): 10.9 µM | GI50 (TK-10 renal): 5.25 µM | TGI (TK-10 renal): 14.9 µM | GI50 (MOLT-4 leukemia): 2.73 µM | TGI (MOLT-4 leukemia): 10.3 µM | GI50 (NCI-H226 lung): 2.11 µM | TGI (NCI-H226 lung): 10.4 µM | GI50 (HT29 colon): 3.31 µM | TGI (HT29 colon): 10.9 µM | GI50 (UACC-257 melanoma): 4.13 µM | TGI (UACC-257 melanoma): 16.3 µM | GI50 (M14 melanoma): 2.88 µM | TGI (M14 melanoma): 9.54 µM | GI50 (CCRF-CEM leukemia): 3.13 µM | TGI (CCRF-CEM leukemia): 11 µM | GI50 (SF-295 CNS): 3.23 µM | TGI (SF-295 CNS): 13.2 µM | GI50 (COLO 205 colon): 3.91 µM | TGI (COLO 205 colon): 14.1 µM | GI50 (SK-OV-3 ovarian): 3.86 µM | TGI (SK-OV-3 ovarian): 16.3 µM | GI50 (MDA-MB-468 breast): 0.83 µM | TGI (MDA-MB-468 breast): 3.88 µM | GI50 (HS 578T breast): 3.14 µM | TGI (HS 578T breast): 17.8 µM | GI50 (DU-145 prostate): 5.52 µM | TGI (DU-145 prostate): 17.8 µM | GI50 (NCI/ADR-RES ovarian): 3.03 µM | TGI (NCI/ADR-RES ovarian): 10.9 µM | GI50 (SK-MEL-2 melanoma): 3.03 µM | TGI (SK-MEL-2 melanoma): 12.8 µM | GI50 (ACHN renal): 2.81 µM | TGI (ACHN renal): 12.9 µM | GI50 (MALME-3M melanoma): 5.38 µM | TGI (MALME-3M melanoma): 18.1 µM | GI50 (OVCAR-4 ovarian): 3.82 µM | TGI (OVCAR-4 ovarian): 17 µM | GI50 (KM12 colon): 2.99 µM | TGI (KM12 colon): 12.8 µM | GI50 (SF-268 CNS): 4.91 µM | TGI (SF-268 CNS): 17.8 µM
